This is an account of results in publication PMC10454375, “Cell-Impermeable Inhibitors Confirm That Intracellular Human Transglutaminase 2 Is Responsible for the Transglutaminase-Associated Cancer Phenotype” (International Journal of Molecular Sciences, 2023).

The structures appear in SMILES notation. Peptide text beside a SMILES is read from it. * marks the point of attachment. X1 = C=CC(=O)NCCCCC(NC(=O)OCc1ccccc1)C(=O)N1CCN(C(=O)C(CCC(=O)*)NC(=O)c2cccc3ccccc23)CC1

In assay [1] the test system is MDA-MB-231 cells. Briefly: Cell proliferation assay, MDA-MB-231. It counts as cell-based. The conditions noted are these: concentrations up to 100 µM, 48 h. The method, then: (§1) MDA-MB-468 cells were cultured in Dulbecco’s Modified Eagle Medium (DMEM)/F-12 DMEM, Gibco Laboratories, New York, NY, USA), 10% FBS (Gibco Laboratories, New York, NY, USA), 50 U/mL penicillin, and 50 μg/mL streptomycin (Gibco Laboratories, New York, NY, USA), while MDA-MB-231 and MDA-MB-436 cells were cultured in DMEM High Glucose with/stable L-Glutamine (EuroClone, Pero, MI, Italy), 10% FBS, and antibiotics, all grown at 37 °C and in 5% CO2 humidified atmosphere.
(§2) The compounds were added to the cultures at the concentrations of 25, 50, 75, and 100 μM and 0.1% DMSO represented the negative control. After 48 h, the cells were trypsinized for 2 min at 37 °C, trypsin was inactivated using 1 mL of the recovered supernatants (containing 10% FBS), centrifuged at room temperature 5 min at 1200 rpm, washed with PBS and resuspended in complete medium. Finally, 50 μL of cells were diluted in 500 μL of Count & Viability Reagent (Luminex, Prodotti Gianni, Milan, Italy) and analyzed by MUSE®.
(§3) The experiments were carried out in triplicate and the average ± SD of the percentage of living cells was reported. Statistical analysis was performed calculating p value by a Student’s t-test, two-tailed, with homovariance and significance expressed by (*) p value < 0.05.
(§4) Supplementary cellular evaluation figures
(§5) Concentration (µM) Concentration (µM)
(§6) Figure S10. […]

In assay [2] the test system is MDA-MB-436 cells. The experiment in a line: Cell proliferation assay, MDA-MB-436. It counts as cell-based. The conditions noted are these: concentrations up to 100 µM, 48 h. The method, then:
as §1, §2
The experiments were carried out in triplicate and the average ± SD of the percentage of living cells was reported. […]
Figure 4 Treatment of cancer cells with cell-permeable and cell-impermeable inhibitors. […] NCEG-RHB localization is detected adjacent to the nuclei (N) in both cell types and is indicated by red arrows. […]

In another assay the test system is MDA-MB-468 cells. The experiment in a line: Cell proliferation assay, MDA-MB-468. It counts as cell-based. The conditions noted are these: concentrations up to 100 µM, 48 h. The method, then: as §1, §2, §3, §4, §5, §6
The test system of the next assay is SCC-13 cells. Briefly: Cell proliferation, SCC-13. It counts as cell-based, human. The conditions noted are these: concentrations up to 100 µM. The method, then: Figure 4 Treatment of cancer cells with cell-permeable and cell-impermeable inhibitors. (A) HaCaT and SCC-13 are epidermis-derived cutaneous squamous cell carcinoma cells that were treated for 10 h with NCEG-RHB prior to imaging using a spinning disc confocal microscope. NCEG-RHB localization is detected adjacent to the nuclei (N) in both cell types and is indicated by red arrows. The HaCaT cell cultures were also stained for 15 min with MitoTracker Green before imaging. MitoTracker Green detects mitochondria membrane proteins inside the cell and the labelling is indicated by green arrows. White scale bars = 100 µm. (B) SCC-13 cells treated with cell-impermeable inhibitor 18 (NCEG2) and cell-permeable inhibitors NC9, AA9, and NCEG-RHB. Scale bars represent 50 µm; (*) p value < 0.001 (C) HaCaT cells treated with cell-impermeable inhibitor 18 (NCEG2) and cell-permeable inhibitors NC9 and AA9. Scale bars represent 50 µm; (*) p value < 0.001. (D) MDA-MB-436 cells treated with cell-impermeable 18 (NCEG2) and with cell-permeable inhibitors NC9, AA9 and NCEG-RHB. Experiments were carried out in triplicate and are represented as average ± SD of the percentage of living cells; (**) p value < 0.01.

Assay [3] concerns MDA-MB-436 cells. Briefly: Real-time cell migration assay (xCELLigence RTCA), MDA-MB-436. The conditions noted are these: 25 µM, 24 h. Format: cell-based. The method, then: (§7) We assayed the motility of MDA-MB-436 cells in the presence of vehicle or TG2 inhibitors 18 (NCEG2), 19 (NCEG-RHB), and NC9 at 25 μM concentration with the xCELLigence RTCA system (Real-Time Cell Analyzer System, Acea Biosciences Inc., San Diego, CA, USA). About 3 × 10^5 cells/wells were put into the top chambers of CIM-16 plates and the bottom chambers were filled with medium containing 5% FBS (Gibco Laboratories, New York, NY, USA) as a chemoattractant. Signal detection was done every 15 min for 24 h and each determination was performed in triplicate. Impedance values were expressed as a dimensionless parameter (Cell Index, CI), and values greater than 0.1 were considered positive. The rate of cell migration was also quantified by calculating the steepness, inclination, gradient, and changing rate of the CI curves over time (Slope).
(§8) A Vehicle B 0.025 Vehicle
(§9) C 2.5 Vehicle D 0.15 Vehicle
(§10) Figure S11. Migration assay: A) Dynamic monitoring of the migration of MDA-MB-436 cells.
(§11) We recorded for 24 hours the migration of the cells in the presence only of the vehicle or of the indicated TG2 inhibitors, used at 25 µM concentrations. Data are reported as Cell Index (CI) values ± SD. […] We recorded for 24 hours the migration of the cells in the presence only of the vehicle or of the indicated TG2 inhibitors, used at 25 µM concentrations. […]

In assay [4] the test system is MDA-MB-231 cells. Briefly: Real-time cell migration assay (xCELLigence RTCA), MDA-MB-231. Format: cell-based. The conditions noted are these: 25 µM, 24 h. The method, then: as §7, §8, §9, §10, §11

With `C=CC(=O)NCCCCC(NC(=O)OCc1ccccc1)C(=O)N1CCN(C(=O)C(CCC(=O)NCC(=O)NCC(=O)NCC(=O)NC(CC(=O)O)C(=O)NC(CC(=O)O)C(=O)NC(CC(=O)O)C(=O)O)NC(=O)c2cccc3ccccc23)CC1` (stereo not drawn) [Compound 18] (X1-GGGDDD-OH; configuration not given here), the “effect on cell proliferation” value in the assay on MDA-MB-231 cells [1], in the assay on MDA-MB-436 cells [2], in the assay with MDA-MB-468 cells and in the assay with SCC-13 cells was “did not have any effect on cell proliferation” throughout. In addition, the “effect on cell migration” value with MDA-MB-436 cells [3] and in the assay on MDA-MB-231 cells [4] was “failed to suppress migration” each time.
